Test results: PubChem BioAssay AID1996
Converted amounts (≈) assume the structure as drawn.

Settings: buffer; pH 7.4; 200.0 µM

SMILES | solubility kinetic [µg/mL]
CN(C)CCC(O)c1ccccc1 (stereo unspecified) | 13.3 (≈ 74.2 µM)
Cc1noc(C)c1C(=O)NCC1COc2ccccc2O1 (stereo unspecified) | > 43.2
Cc1ccc(C(=O)CCC(=O)N2CCC(C(N)=O)CC2)cc1 | 43.5 (≈ 144 µM)
COC(CSc1ncnc2c1oc1nc3c(cc12)COC(C)(C)C3)OC | 54.6 (≈ 145 µM)
CCN1CCN(c2ncnc3scc(-c4ccc(C)c(C)c4)c23)CC1 | > 52.9
Cc1ccc(S(=O)(=O)N(C)c2ccc(OCC(=O)OCc3ccc(C#N)cc3)cc2)cc1 | 8.4 (≈ 18.6 µM)
CC(NC(=O)CNC(=O)c1cccc(Cl)c1)c1ccccc1 (stereo unspecified) | 43.7 (≈ 138 µM)
CCSc1nc2sc3c(c2c(=O)n1-c1ccccc1)CCN(C(C)C)C3 | 37 (≈ 96 µM)
CCC1CN(C(=O)NCc2ccc(C)cc2)c2cc(C)ccc2O1 (stereo unspecified) | 0.5 (≈ 1.54 µM)
Cc1csc(SCC(=O)Nc2ccccc2C)n1 | > 41.8
O=C(NC1CCNCC1)C1CC1 | > 25.2
Cc1c(C)n(CCc2ccccc2)c2ncnc(NCCCN(C)C)c12 | > 52.7
COc1ccc(NC(=O)NCCN2CCCCC2)cc1 | 33.9 (≈ 122 µM)
CC(C)CC(C(=O)N1CCOCC1)N1Cc2ccccc2C1=O (stereo unspecified) | 47.3 (≈ 149 µM)
CCC(=NC)C1=C(O)CC(c2ccccc2)CC1=O (stereo unspecified) | > 38.6
CS(=O)(=O)N(CC(=O)NC1CCCC1)C1CCCCC1 | > 45.4
CCCCNC(=O)c1cc2cc(CC)ccc2[nH]1 | 1.9 (≈ 7.78 µM)
O=C(COC(=O)/C=C/c1ccc(Cl)cc1Cl)NCc1ccco1 | 5.9 (≈ 16.7 µM)
CCOC(=O)CC(c1ccc(N)cc1)n1c(C)ccc1C (stereo unspecified) | 20.8 (≈ 72.6 µM)
Cc1ccc(Cl)c(OCCN2CCc3ccccc3C2)c1.Cl | 4.4

SMILES | solubility kinetic [µg/mL]
O=C(Cc1ccccc1[N+](=O)[O-])OCN1C(=O)c2ccccc2C1=O | 13.7 (≈ 40.3 µM)
CC1CCc2c(sc(NC(=O)COC(=O)C3CCCO3)c2C#N)C1 (stereo unspecified) | 34.2 (≈ 98.2 µM)
Cc1noc(NS(=O)(=O)c2ccc(N)cc2)c1C | > 40.1
O=C(CNC(=O)c1ccccc1)Oc1ccc([N+](=O)[O-])cc1 | > 45
CCOC(=O)C1CCN(S(=O)(=O)c2cn(C)c(C)n2)CC1 | > 47.3
O=C(Oc1ccc(C(=S)N2CCOCC2)cc1)c1cccc([N+](=O)[O-])c1 | < 0.4
Cc1cc(C)c2sc(N(CCN(C)C)C(=O)c3ccc4ccccc4c3)nc2c1.Cl | 6.7
Cc1cc(C)c2nc(SCC(=O)Nc3cc(C)on3)c(C)cc2c1 | 0.3 (≈ 0.879 µM)
CC1CCCC(NC(=O)c2ccc3c(c2)OCCO3)C1C (stereo unspecified) | > 43.4
CCOC(=O)C1CCN(C(=S)NC(=O)c2cccs2)CC1 | > 49
O=C(COc1ccc(Cl)cc1)Nc1nnc(C2=COCCO2)o1 | > 50.7
Cc1nc2ccc(NC(=S)N3CCOCC3)cc2nc1C | 39.3 (≈ 130 µM)
O=C(C(=O)N1CCOCC1)c1cn(Cc2ccccc2)c2ccccc12 | 6.4 (≈ 18.4 µM)
CCn1c(=O)ccc2cc([N+](=O)[O-])ccc21 | > 32.7
COc1ccc([C@@H](O)[C@@H](N)c2ccccc2)cc1.Cl | 41.7
CC12CCC(C(=O)O)(c3nc4cc([N+](=O)[O-])ccc4nc31)C2(C)C (stereo unspecified) | > 49.1
CC(OCCN(C)C)C(=O)C12CC3CC(CC(C3)C1)C2.Cl (stereo unspecified) | 46.8
CCn1cc(S(=O)(=O)Nc2ccc(Cl)cc2F)cn1 | > 45.6
O=C(CSc1nccn1-c1ccccc1)NO | 32.1 (≈ 129 µM)
Cc1cc(C)cc(NC(=O)N2C3CCCC2CC(NC(=O)C2CC2)C3)c1 (stereo unspecified) | 1.6 (≈ 4.5 µM)

SMILES | solubility kinetic [µg/mL]
O=C(Nc1ccon1)Nc1ccccc1C(F)(F)F | > 40.7
NS(=O)(=O)c1cccc(NC(=O)COC(=O)c2ccccc2SCC(=O)N2CCCC2)c1 | > 71.6
COc1cccc(N2CN(C3CCCCC3)CNC2=S)c1 | > 45.8
CCC(=O)NC1OC(CO)C(O)C(O)C1O (stereo unspecified) | > 35.3
O=C(O)C1CC=CCC1C(=O)NCCCCc1ccccc1 (stereo unspecified) | > 45.2
Clc1cc(Cl)cc(NC2=NCCS2)c1 | 8.8 (≈ 35.6 µM)
CC(CN1CCCC1)OC(=O)c1ccc(Cl)cc1Cl.Cl (stereo unspecified) | > 50.8
O=C(NCCCc1ccccc1)N1CCOCC1 | > 37.2
COc1cc(C(=O)NCCNC(=O)C2CCCNC2=O)cc(OC)c1OC (stereo unspecified) | > 56.9
O=C(/C=C/c1cccc2ccccc12)N1CCOCC1 | > 40.1
CCc1ccc(N2CC(C(=O)OCC(=O)NC3CC3)CC2=O)cc1 (stereo unspecified) | > 49.6
CC(NC(=S)NC1CCC(C(C)(C)C)CC1)c1ccccc1 (stereo unspecified) | < 0.3
CC(NC(=S)NC1CCCCC1)c1ccccc1 (stereo unspecified) | 36.1 (≈ 138 µM)
COc1cc(C(=O)OCCNC(=O)c2cccnc2)cc(OC)c1OC.Cl | > 59.5
COC(=O)C1CN(C(=O)COc2ccc(C)cc2)c2ccccc2O1 (stereo unspecified) | 49.1 (≈ 144 µM)
CN(c1ccccc1)S(=O)(=O)c1ccc(C(=O)N2CCN(c3ccccc3Cl)CC2)cc1 | 6.8 (≈ 14.5 µM)
NC1CCN(c2c(F)cc3c(=O)c(C(=O)O)cn(C4CC4)c3c2Cl)C1 (stereo unspecified) | > 54.9
COc1ccccc1-c1ccc(/C=N/O)o1 | 3.9 (≈ 18 µM)

Other lines, results leading:

solubility kinetic [µg/mL] | SMILES
16.3 (≈ 46.5 µM) | O=C(NCC(c1ccco1)N1CCc2ccccc21)c1cccc(F)c1 (stereo unspecified)
5.8 (≈ 27.7 µM) | Cc1ccc2[nH]c3ccccc3c(=O)c2c1
5 (≈ 13.8 µM) | Cc1ccc(NC2=NC(c3ccc(F)cc3)n3c(nc(C)cc3=O)N2)cc1 (stereo unspecified)
> 45.5 | C=CCNC(=O)c1cnn(-c2ccccc2)c1-c1ccccc1
16.8 (≈ 53.6 µM) | COCc1ccc(C(=O)NC2CCSc3ccccc32)cc1 (stereo unspecified)
< 0.7 | O=C(Nc1ccccc1F)C(c1ccccc1)c1ccccc1
> 43.9 | CNC(=O)c1ccccc1-c1cn(C)c2ccccc2c1=O
2.4 (≈ 7.54 µM) | O=C1OC(c2ccc(Br)cc2)=N/C1=C\c1ccco1
> 52.7 | COc1ccc(-c2c(C)nn(-c3ccccc3)c2NC(C)=O)cc1OC
> 48.7 | COc1ccc(CN(C)CC(=O)N2CCc3ccccc3C2)cc1
> 52.9 | CCN(C(=O)Cc1c(C(=O)O)[nH]c2ccccc12)c1ccc(OC)cc1
3.1 (≈ 11.2 µM) | Cc1c(C(=O)Nc2nccs2)oc2ccc(F)cc12
0.8 (≈ 2.95 µM) | Fc1ccc(Nc2nc(-c3ccncc3)cs2)cc1
32.3 (≈ 121 µM) | O=C(c1nc2ccccc2[nH]1)c1ccccc1[N+](=O)[O-]
1.2 (≈ 3.54 µM) | O=C(O/N=C1\CCS(=O)(=O)c2sccc21)c1ccc(F)cc1
> 43 | Cc1ccc(SCCC(=O)NCc2ccccn2)cc1
> 43.4 | O=C(CSCc1ccccc1F)NCc1ccccc1
12.9 (≈ 39.8 µM) | COCCCn1c(-c2cccs2)nc2nc3ccccc3nc21
> 46 | CC(NC(=O)c1cnccn1)c1ccc(S(N)(=O)=O)cc1 (stereo unspecified)
7 (≈ 20.8 µM) | O=c1nc(SCc2cccc(C(F)(F)F)c2)nc2ccccn12
12.8 (≈ 54.6 µM) | O=C(Nc1nccs1)OCc1ccccc1
28.1 (≈ 123 µM) | Cc1[nH]c2ccccc2c1-c1csc(N)n1
< 0.2 | COC(=O)c1cccc(Nc2nc(-c3ccncc3)nc3ccccc23)c1
0.5 (≈ 1.54 µM) | Cc1ccc(-c2ccc(S(=O)(=O)Nc3cccnc3)cc2)cc1
4.6 (≈ 13.8 µM) | Cc1ccc(C(=O)Nc2ccccc2C(=O)NCc2ccco2)cc1
> 62.2 | COc1ccc(C(CNS(=O)(=O)c2cccc(F)c2)N2CCCC2)cc1.Cl (stereo unspecified)
> 47 | Cc1cccc(N2C(=O)CC(Sc3nccc(C)n3)C2=O)c1 (stereo unspecified)
< 0.3 | Cc1ccc(NC(=O)CN2C(=O)S/C(=C\c3ccccn3)C2=O)cc1C
